Measured values reported in ChEMBL document CHEMBL5579901, “Discovery of Novel [1,2,4]Triazolo[1,5-a]pyrimidine Derivatives as Novel Potent S-Phase Kinase-Associated Protein 2 (SKP2) Inhibitors for the Treatment of Cancer” (J Med Chem, 2024).
Active and inactive are the calls of the source. No cut-off for these calls is given here.

Assays:
[1] = tested on: MGC-803; assay: Induction of cell cycle arrest in human MGC-803 cells assessed as cells at G2/M phase at 15 uM incubated for 48 hrs by PI staining based flow cytometry (reference value: 20.8%); assay type: functional
[2] = tested on: MGC-803; assay: Induction of cell cycle arrest in human MGC-803 cells assessed as cells at G2/M phase at 7.5 uM incubated for 36 hrs by PI staining based flow cytometry (reference value: 20.6%); assay type: functional
[3] = tested on: MGC-803; assay: Inhibition of cell migration in human MGC-803 cells incubated for 48 hrs by wound healing assay; assay type: functional, cell-based; details: dose 2.5-7.5 µM
[4] = tested on: MGC-803; assay: Induction of cell cycle arrest in human MGC-803 cells assessed as cells at G0/G1 phase at 15 uM incubated for 12 hrs by PI staining based flow cytometry (reference value: 57.9%); assay type: functional
[5] = tested on: PC-3; assay: Induction of cell cycle arrest in human PC-3 cells assessed as cells at S phase at 15 uM incubated for 6 hrs by PI staining based flow cytometry (reference value: 22.9%); assay type: functional
[6] = molecular target: T1, Cyclin-dependent kinases regulatory subunit 1/S-phase kinase-associated protein 2 (Homo sapiens) (UniProt P61024+Q13309); assay: Inhibition of GST-tagged SKP2 (unknown origin) binding to His6-tagged CKS1 (unknown origin) at 50 uM preincubated with SKP2 for 10 mins followed by CKS1 addition for 20 mins and measured after by HTRF method relative to control; assay type: protein assay; details: time 30.0 min
[7] = AUClast in Sprague-Dawley rat at 1 mg/kg, iv measured upto 24 hrs by LC/MS-MS analysis; assay type: ADME, organism-based; details: in vivo
[8] = tested on: MGC-803; assay: Upregulation of p27 protein expression in human MGC-803 cells at 15 uM by Western blotting analysis; assay type: functional, cell-based; details: time 6-48 hrs, TDE = time-dependent effect
[9] = tested on: PC-3; assay: Induction of cell cycle arrest in human PC-3 cells assessed as cells at G2/M phase at 7.5 uM incubated for 36 hrs by PI staining based flow cytometry (reference value: 21.3%); assay type: functional
[10] = tested on: MGC-803; assay: Antitumor activity against human MGC-803 cells xenografted in NOD-SCID mouse assessed as tumor growth inhibition at 50 mg/kg, IG administered for 21 days; assay type: functional; details: MGC-803, po, 504 h, time 21 day, read-out: TGI
[11] = tested on: PC-3; assay: Induction of cell cycle arrest in human PC-3 cells assessed as cells at S phase at 7.5 uM incubated for 36 hrs by PI staining based flow cytometry (reference value: 22.8%); assay type: functional
[12] = molecular target: T1, Cyclin-dependent kinases regulatory subunit 1/S-phase kinase-associated protein 2 (Homo sapiens); assay: Inhibition of GST-tagged SKP2 (unknown origin) binding to His6-tagged CKS1 (unknown origin) incubated for 1 hr by pull down method; assay type: protein assay
[13] = tested on: PC-3; assay: Upregulation of p27 protein expression in human PC-3 cells at 5 to 15 uM incubated for 48 hrs by Western blotting analysis; assay type: functional, cell-based; details: dose 5-15 µM
[14] = tested on: MGC-803; assay: Inhibition of cell proliferation in human MGC-803 cells incubated for 72 hrs by MTT assay; assay type: functional, cell-based; details: MGC-803, 72 h
[15] = tested on: MGC-803; assay: Induction of cell cycle arrest in human MGC-803 cells assessed as cells at S phase at 15 uM incubated for 6 hrs by PI staining based flow cytometry (reference value: 19.6%); assay type: functional
[16] = tested on: PC-3; assay: Induction of cell cycle arrest in human PC-3 cells assessed as cells at G0/G1 phase at 15 uM incubated for 36 hrs by PI staining based flow cytometry (reference value: 54.5%); assay type: functional
[17] = tested on: MGC-803; assay: Induction of cell cycle arrest in human MGC-803 cells assessed as cells at G2/M phase at 15 uM incubated for 24 hrs by PI staining based flow cytometry (reference value: 20.8%); assay type: functional

T1 sequence (P61024 2-79 limits assumed): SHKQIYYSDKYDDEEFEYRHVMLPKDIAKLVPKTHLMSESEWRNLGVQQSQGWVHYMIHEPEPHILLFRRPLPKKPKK
T1 sequence (Q13309 whole entry partner): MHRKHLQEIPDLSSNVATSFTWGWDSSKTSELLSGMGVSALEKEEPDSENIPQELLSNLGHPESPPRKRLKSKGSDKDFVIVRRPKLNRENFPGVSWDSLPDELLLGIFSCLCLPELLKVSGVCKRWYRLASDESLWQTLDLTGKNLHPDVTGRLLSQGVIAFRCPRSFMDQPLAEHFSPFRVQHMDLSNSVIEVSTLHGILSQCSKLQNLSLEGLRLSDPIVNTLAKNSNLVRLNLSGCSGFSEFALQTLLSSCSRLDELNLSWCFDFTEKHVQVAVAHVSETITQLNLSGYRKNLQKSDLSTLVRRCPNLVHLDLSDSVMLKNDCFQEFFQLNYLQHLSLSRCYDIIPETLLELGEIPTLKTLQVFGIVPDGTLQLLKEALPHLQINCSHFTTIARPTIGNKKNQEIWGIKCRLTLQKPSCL

- inhibition [6]: 73.7%
- AUC(0-t) at 24 h [7]: 699 ng·h/mL
- inhibition [12]: Active
- IC50 [14]: 10.8 µM
SMILES: COc1ccc(-c2cc(C)nc3nc(SCc4ccc(Br)cc4)nn23)c(OC)c1
- Activity [1]: 20.1%
- Activity [2]: 18.7%
- inhibition [3]: Dose-Dependent Effect
- Activity [4]: 44%
- Activity [5]: 26.7%
- Activity [8]: Tde
- Activity [9]: 21.9%
- inhibition in vivo at 50 mg/kg [10]: 76.9%
- Activity [11]: 37.2%
- Activity [13]: Active
- Activity [15]: 26.8%
- Activity [16]: 30.1%
- Activity [17]: 16.1%
